According to ChEMBL document CHEMBL2021874, “Discovery of a series of 2-(1H-pyrazol-1-yl)pyridines as ALK5 inhibitors with potential utility in the prevention of dermal scarring” (Bioorg Med Chem Lett, 2012):
Active and inactive are the calls of the source. The rule behind the calls is not given here.

Key:
[1] = system: Rattus norvegicus; assay: Inhibition of dermal injury-induced alpha-SMA gene expression in rat wound repair model treated topically after 7 days; assay type: functional, organism-based
[2] = system: Rattus norvegicus; assay: Inhibition of dermal injury-induced CLO1A gene expression in rat wound repair model treated topically after 7 days; assay type: functional, organism-based
[3] = target: T1, Activin receptor type-1B (Homo sapiens, UniProt P36896); assay: Inhibition of ALK4
T1 sequence (P36896 whole entry): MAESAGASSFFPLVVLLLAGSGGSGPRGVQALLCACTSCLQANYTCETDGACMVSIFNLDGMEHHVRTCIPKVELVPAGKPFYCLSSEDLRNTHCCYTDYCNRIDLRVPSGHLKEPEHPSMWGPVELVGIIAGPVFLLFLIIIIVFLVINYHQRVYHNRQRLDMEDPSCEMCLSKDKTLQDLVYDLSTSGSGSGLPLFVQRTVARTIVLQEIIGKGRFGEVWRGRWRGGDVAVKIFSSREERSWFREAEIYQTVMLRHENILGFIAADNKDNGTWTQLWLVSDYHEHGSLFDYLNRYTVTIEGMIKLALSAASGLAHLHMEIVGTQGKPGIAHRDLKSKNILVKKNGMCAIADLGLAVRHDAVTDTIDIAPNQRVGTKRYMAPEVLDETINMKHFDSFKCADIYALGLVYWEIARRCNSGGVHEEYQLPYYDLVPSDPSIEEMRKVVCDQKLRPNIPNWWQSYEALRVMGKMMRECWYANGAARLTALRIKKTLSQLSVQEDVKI

[4] = system: Rattus norvegicus; assay: Inhibition of dermal injury-induced PAI1 gene expression in rat wound repair model treated topically after 7 days; assay type: functional, organism-based
[5] = system: Rattus norvegicus; assay: Inhibition of dermal injury-induced new collagen synthesis in rat wound repair model at 1% treated topically after 7 days; assay type: functional
[6] = system: Rattus norvegicus; assay: Inhibition of dermal injury-induced TGFbeta-1 gene expression in rat wound repair model treated topically after 7 days; assay type: functional, organism-based
[7] = system: Fibroblast; assay: Inhibition of in TGFbeta-induced alpha-SMA gene expression in human fibroblasts; assay type: functional, cell-based
[8] = system: Rattus norvegicus; assay: Inhibition of dermal injury-induced FN1 gene expression in rat wound repair model treated topically after 7 days; assay type: functional, organism-based
[9] = target: T2, TGF-beta receptor type-1 (Homo sapiens, UniProt P36897); assay: Inhibition of ALK5
T2 sequence (P36897 whole entry): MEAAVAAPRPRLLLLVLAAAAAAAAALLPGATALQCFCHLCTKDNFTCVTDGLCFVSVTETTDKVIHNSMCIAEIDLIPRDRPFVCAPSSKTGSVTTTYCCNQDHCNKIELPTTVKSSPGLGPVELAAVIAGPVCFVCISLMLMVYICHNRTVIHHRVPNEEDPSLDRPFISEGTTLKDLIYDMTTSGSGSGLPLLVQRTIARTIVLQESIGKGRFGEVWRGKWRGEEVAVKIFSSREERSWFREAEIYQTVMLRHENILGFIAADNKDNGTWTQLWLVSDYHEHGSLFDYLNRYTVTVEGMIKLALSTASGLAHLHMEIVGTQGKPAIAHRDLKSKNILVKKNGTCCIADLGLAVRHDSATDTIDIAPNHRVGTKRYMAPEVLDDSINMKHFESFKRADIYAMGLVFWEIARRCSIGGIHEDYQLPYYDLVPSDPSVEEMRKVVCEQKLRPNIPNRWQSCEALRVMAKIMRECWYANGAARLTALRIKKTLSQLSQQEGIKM

[10] = system: Fibroblast; assay: Inhibition of in TGFbeta-induced COL1A gene expression in human fibroblasts; assay type: functional, cell-based
[11] = system: Rattus norvegicus; assay: Inhibition of wound healing in rat wound repair model treated topically by measuring wound closure after 7 days; assay type: functional, organism-based
[12] = system: Fibroblast; assay: Inhibition of in TGFbeta-induced FN1 gene expression in human fibroblasts; assay type: functional, cell-based
[13] = target: Activin receptor type-1-like (Homo sapiens, UniProt P37023); assay: Inhibition of ALK1
[14] = system: Fibroblast; assay: Inhibition of in TGFbeta-induced FSP1 gene expression in human fibroblasts; assay type: functional, cell-based
[15] = system: Rattus norvegicus; assay: Inhibition of dermal injury-induced FSP1 gene expression in rat wound repair model treated topically after 7 days; assay type: functional, organism-based
[16] = Photostability of the compound assessed as compound remaining after exposure to sunlight; assay type: physicochemical
[17] = system: Fibroblast; assay: Inhibition of in TGFbeta-induced CTGF gene expression in human fibroblasts; assay type: functional, cell-based
[18] = system: Rattus norvegicus; assay: Inhibition of dermal injury-induced CTGF gene expression in rat wound repair model treated topically after 7 days; assay type: functional, organism-based
[19] = system: Fibroblast; assay: Inhibition of in TGFbeta-induced SMAD2/3 phosphorylation in human fibroblasts; assay type: functional, cell-based
[20] = system: Fibroblast; assay: Inhibition of in TGFbeta-induced PAI1 gene expression in human fibroblasts; assay type: functional, cell-based
[21] = system: Fibroblast; assay: Inhibition of in TGFbeta-induced TGFbeta1 gene expression in human fibroblasts; assay type: functional, cell-based
[22] = target: T3, TGF-beta receptor type-1 (Mus musculus, UniProt Q64729); assay: Inhibition of ALK5 in mouse NIH/3T3 cells by smad binding element reporter based assay; assay type: cell-based
T3 sequence (Q64729 whole entry): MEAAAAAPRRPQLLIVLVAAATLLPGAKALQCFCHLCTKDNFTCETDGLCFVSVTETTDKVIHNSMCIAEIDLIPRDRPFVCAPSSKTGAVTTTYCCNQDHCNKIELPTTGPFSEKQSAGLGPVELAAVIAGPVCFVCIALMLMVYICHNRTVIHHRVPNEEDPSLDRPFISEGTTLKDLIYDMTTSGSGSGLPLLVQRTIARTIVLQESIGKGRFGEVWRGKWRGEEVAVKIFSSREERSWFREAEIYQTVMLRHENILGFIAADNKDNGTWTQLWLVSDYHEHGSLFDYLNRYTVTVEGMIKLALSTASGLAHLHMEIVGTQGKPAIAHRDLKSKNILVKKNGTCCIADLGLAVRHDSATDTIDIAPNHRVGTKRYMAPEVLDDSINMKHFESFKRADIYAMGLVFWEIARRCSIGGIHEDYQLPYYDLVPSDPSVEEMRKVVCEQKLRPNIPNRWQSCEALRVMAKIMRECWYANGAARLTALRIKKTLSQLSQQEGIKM

[23] = Photostability of the compound assessed as compound degradation after exposure to sunlight; assay type: physicochemical; details: read-out: Drug degradation

Chain of Activin receptor type-1-like (P37023 whole entry): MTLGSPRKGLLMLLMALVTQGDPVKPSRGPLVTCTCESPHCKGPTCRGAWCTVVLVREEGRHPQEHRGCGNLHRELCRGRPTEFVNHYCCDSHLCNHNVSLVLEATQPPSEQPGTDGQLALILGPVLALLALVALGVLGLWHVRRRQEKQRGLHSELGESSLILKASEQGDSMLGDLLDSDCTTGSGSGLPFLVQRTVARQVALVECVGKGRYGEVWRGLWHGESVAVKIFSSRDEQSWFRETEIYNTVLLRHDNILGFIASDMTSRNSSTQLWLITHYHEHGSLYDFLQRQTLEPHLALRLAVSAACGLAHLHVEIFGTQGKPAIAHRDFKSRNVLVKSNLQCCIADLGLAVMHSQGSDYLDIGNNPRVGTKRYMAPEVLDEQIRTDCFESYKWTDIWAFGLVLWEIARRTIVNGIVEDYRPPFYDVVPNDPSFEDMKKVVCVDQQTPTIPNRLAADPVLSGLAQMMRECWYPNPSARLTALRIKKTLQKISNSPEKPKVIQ

For `Cc1cccc(-n2nccc2-c2ccc3ncn(C)c(=O)c3c2)n1`, the inhibition [1] was “Dose-dependent effect”, the inhibition [2] was “Dose-dependent effect” and the IC50 [3] was 59 nM. The inhibition [4] was “Dose-dependent effect”, the “inhibition (INH)” value [5] was 26% and the inhibition [6] was “Dose-dependent effect”. For the same compound, the inhibition [7] was “Dose-dependent effect”, the inhibition [8] was “Dose-dependent effect” and the IC50 [9] was 13 nM. The inhibition [10] was “Dose-dependent effect”, the inhibition [11] was “inactive” and the inhibition [12] was “Dose-dependent effect”. The IC50 [13] was greater than 5000 nM, the inhibition [14] was “Dose-dependent effect” and the inhibition [15] was “Dose-dependent effect”. The Stability [16] was 99.4%, the inhibition [17] was “Dose-dependent effect” and the inhibition [18] was “Dose-dependent effect”. For the same compound, the inhibition [19] was “Dose-dependent effect”, the inhibition [20] was “Dose-dependent effect” and the inhibition [21] was “Dose-dependent effect”. It also gave an IC50 [22] of 211 nM.
Work on `Cc1cccc(-n2ncc(C)c2-c2ccc3ncn(C)c(=O)c3c2)n1` yielded an IC50 [9] of 4 nM, a Stability [16] of 99% and an IC50 [22] of 135 nM.
Work on `Cc1cccc(-n2ncc(C)c2-c2ccc3nc[nH]c(=O)c3c2)n1` yielded an IC50 [9] of 1 nM and an IC50 [22] of 61 nM.
For `C=Cn1cnc2ccc(-c3ccnn3-c3cccc(C)n3)cc2c1=O`, the IC50 [9] was 4 nM, the Stability [16] was 100% and the IC50 [22] was 44 nM.
For `Cc1cccc(-n2nc3c(c2-c2ccc4nc[nH]c(=O)c4c2)CCC3)n1`, the IC50 [9] was 5 nM, the Stability [16] was 100% and the IC50 [22] was 46 nM.
Compound `CCc1cnn(-c2cccc(C)n2)c1-c1ccc2nc[nH]c(=O)c2c1` has an IC50 [9] of 2 nM and an IC50 [22] of 47 nM.
In the case of `Cc1cccc(-n2nccc2-c2ccc3nc[nH]c(=O)c3c2)n1`, the IC50 [9] is reported as 6 nM and the IC50 [22] is reported as 73 nM.
In the case of `CCc1cc(-c2ccc3ncn(C)c(=O)c3c2)n(-c2cccc(C)n2)n1`, the IC50 [9] is reported as 1 nM and the IC50 [22] is reported as 274 nM.
`Cc1cccc(-n2nc(C)cc2-c2ccc3ncn(C)c(=O)c3c2)n1` gave an IC50 [9] of 3 nM and an IC50 [22] of 695 nM.
In the case of `Cc1cccc(-c2n[nH]cc2-c2ccc3ncn(C)c(=O)c3c2)n1`, the degraded [23] is reported as 68% and the Stability [16] is reported as 32%.
`CCn1cnc2ccc(-c3ccnn3-c3cccc(C)n3)cc2c1=O` gave an IC50 [9] of 69 nM, a Stability [16] of 100% and an IC50 [22] of 708 nM.
